One test concerns the target AMPA binding site. In words: AMPA binding assay (T. Honore et al., Neuroscience Letters 54, 27-32 (1985)).
Test [1] deals with AMPA-induced clonic seizures in NMRI mice. In words: AMPA-induced clonic seizures (AMPA seizure test). The following applies: Mus musculus, female NMRI mice, dose inhibiting 50% of the mice from having clonic seizures. It is filed as in vivo. As for the experimental part:
AMPA given icv (intracerebroventricular) (15 μg/kg) NMRI to mice induces clonic seizures which should be inhibited by non-NMDA receptor antagonists.
Test compound was given i.v. 5 min (or p.o. 30 min) before a 0.3 μg icv administration of AMPA to 10 female NMRI mice (weighing 24-26 g) per dose. The number of mice experiencing clonic seizures within the next 5 min was noted. An ED50 value was calculated as the dose inhibiting 50% of the mice from having clonic seizures.

Like-named read-outs stand apart in the source and are kept apart here.

What is called IC50 is the concentration that inhibits the measured activity by half. A low value points to greater potency in that assay. Usually ED50 stands for the dose at which the effect has come halfway, by size or by number of responders. With `CN(C)S(=O)(=O)c1cc2c(c3c1CCCC3)NC(=O)C2=NO` [5-N,N-dimethylsulfamoyl-1H-6,7,8,9-tetrahydrobenz[g]indole-2,3-dione-3-oxime], the IC50 on AMPA binding site was 2000 nM. Also, the ED50 in test [1] (iv, 5 min, administered i.v. 5 min before 0.3 μg icv AMPA, read-out: ED50 in the AMPA seizure test, i.v.) is 3 mg/kg; in test [1] (po, 0.5 h, administered orally (p.o.) 30 min before 0.3 μg icv AMPA, read-out: ED50 in the AMPA seizure test, orally), 30 mg/kg.

For the origin of these results see patent publication US5223527A, “Isatineoxime derivatives and their use” (NeuroSearch A/S, priority 1992, dated 1993).
